Experimental data: patent US6875758B2, “Method of treating hyperlipidemic and hyperglycemic conditions in mammals using pregnadienols and pregnadienones” (Council of Scientific & Industrial Research, priority 1999, dated 2005)

How the values were obtained:
[1] = test system: Human serum LDL; assay: Cu2+ induced oxidation of low density lipoprotein (TBA reactive lipid peroxides); type: biochemical; settings: for MDA (Exp.): 16 hr at 37° C., pH 7.4
Protocol: Human serum LDL was oxidized with Cu^′2 in different concentrations of test compound in 0.05 mole PBS, pH 7.4 for 16 hr at 37° C. Thiobarbituric acid reactive lipid peroxides are measured by standard procedure. […] Cu^′2 induced oxidation in LDL lipids are mainly due to the free OH radical during incubation.

[2] = test system: Rhesus monkeys; assay: Hypolipidemic activity in Rhesus monkeys; type: in vivo; settings: for S. Triglycerides % Fall: day 60 vs day 0; for HDL-Cholesterol % Change / LDL-Cholesterol % Fall / S. Cholesterol % Fall: day 90 vs day 0
Protocol: In Rhesus monkeys: 3β-Hydroxypregna-5,16-dien-20one (2) was administered orally daily for 90 days in doses of 62.5, 125 or 650 mg/kg to different group of animals. Significant decrease in serum cholesterol was observed (45-52%).

[3] = test system: hyperlipidemic rabbits; assay: Hypolipidemic effect in hyperlipidemic rabbits (120 days experiment); type: in vivo; design: Serum Triglycerides: unit not given here; settings: 100 mg/kg
[4] = test system: streptozotocin induced diabetic rats; assay: Hypoglycemic activity in streptozotocin induced hyperglycemic rats; type: in vivo; settings: 100 mg/kg p.o.
Protocol: Hyperglycemia in rats was produced by streptozotocin treatment. The animals showing blood glucose levels between 250-350 mg/dl were selected. Blood samples were collected after treatment at intervals and blood glucose levels were estimated immediately.

[5] = test system: normal rats; assay: Hypolipidemic activity in normal rats; type: in vivo; settings: 50 mg/kg
Protocol: In normal rats, 3β-hydroxypregna-5,16-dien-20one (2), at 50 mg/kg produced a significant lowering of serum cholesterol and triglycerides as describe in Table-3 below.

[6] = test system: Triton treated rats; assay: Cholesterol lowering in Triton treated rats; type: in vivo, Charles Foster rats; settings: Rattus norvegicus, ip; 50 mg/kg i.p.; read-out: % Change S. Chol.
Description: The primary hypolipidemic effect of these compounds was established in triton induced hyperlipidemia in Charles Foster rats. […] The cholesterol lowering effect of some representative compounds of pregrenadienols and pregrenadienones as compared to clofibrate and gugulsterone in triton treated Charles Foster rats is described in Table-2.

[7] = test system: hyperlipidemic rats (high fat diet); assay: Hypolipidemic activity in diet induced hyperlipidemic rats; type: in vivo; settings: for LDL-Cholesterol: calculated
Protocol: Twenty three normal male rats average weight 110-120 g were taken for study and were divided into four groups. Group l: animals received special diet and 3β-hydroxypregna-5,16-dien-20-one (2) 50 mg/kg p.o. in 1% gum acacia. Group II: animals received 3β-hydroxypregna-5,16-dien-20-one (2), 100 mg/kg p.o. in 1% gum acacia and special diet. Group III: animals received special fat diet and 1% gum acacia and served as control. Group IV: animals were fed with stock diet and served as normal control. All animals were sacrificed at the end of 36 days. Blood was drawn from the tail at 10 days and from the aorta at the time of sacrifice for estimation of serum cholesterol, triglycerides and HDL-cholesterol. LDL-cholesterol was calculated as described. [Roschlau, P. In: Methods of Enzymatic Analysis 4th ed., H. U. Bergmeyer, Ed (Academic Press, New York) 1975 p 1890; Wahlefield, W. A. In: Methods of Enzymatic Analysis, 4th ed.; H. U. Bergmeyer, Ed. (Academic Press, New York) 1974 p 1831.]

[8] = test system: endometrial proliferation; assay: Clauberg assay, endometrial proliferation on McPhail scale; type: in vivo; settings: 200 mg/kg dose
Protocol: The progestational activity was also tested in vivo by Clauberg assay method. The degree of endometrial proliferation was estimated on the McPhail scale where 3′ or 4′ was considered as a full progestational effect.

[9] = 62.5, 125 or 650 mg/kg orally daily for 90 days

CC(=O)C1=CC[C@H]2[C@@H]3CC=C4C[C@@H](O)CC[C@]4(C)[C@H]3CC[C@]12C [Compound 2, 3β-Hydroxypregna-5,16-dien-20-one]
% inhibition of LDL oxidation ([1]; 2.5 μmol/ml): (26) %
MDA (Exp.) ([1]; 2.5 μmol/ml): 41.4 ± 1.7 n mol MDA/mg protein
% inhibition of LDL oxidation ([1]; 5.0 μmol/ml): (49) %
MDA (Exp.) ([1]; 5.0 μmol/ml): 28.7 ± 4.0 n mol MDA/mg protein
% inhibition of LDL oxidation ([1]; 10.0 μmol/ml): (74) %
MDA (Exp.) ([1]; 10.0 μmol/ml): 10.6 ± 0.5 n mol MDA/mg protein
% inhibition of LDL oxidation ([1]; 20 μmol/ml): (89) %
MDA (Exp.) ([1]; 20 μmol/ml): 4.0 ± 0.5 n mol MDA/mg protein
generation of LDL lipid peroxide (in words) ([1]; tested concentrations): inhibit the generation of LDL lipid peroxide in concentration dependent manner
S. Cholesterol ([2]; 62.5 mg/kg orally daily, day 0): 156.8 ± 23.0 mg/dL
S. Triglycerides ([2]; 62.5 mg/kg orally daily, day 0): 77.5 ± 7.0 mg/dL
S. Triglycerides ([2]; 62.5 mg/kg orally daily, day 60): 66.3 ± 6.9 mg/dL
S. Cholesterol ([2]; 62.5 mg/kg orally daily, day 90): 83.3 ± 8.5 mg/dL
HDL-Cholesterol ([2]; 62.5 mg/kg, day 0): 50.0 ± 4.5 mg/dL
LDL-Cholesterol ([2]; 62.5 mg/kg, day 0): 91.8 ± 27.0 mg/dL
S. Triglycerides % Fall ([2]; 62.5 mg/kg): 14%
HDL-Cholesterol ([2]; 62.5 mg/kg, day 90): 45.0 ± 2.5 mg/dL
LDL-Cholesterol ([2]; 62.5 mg/kg, day 90): 24.3 ± 8.0 mg/dL
HDL-Cholesterol % Change ([2]; 62.5 mg/kg): −8%
LDL-Cholesterol % Fall ([2]; 62.5 mg/kg): 75%
S. Cholesterol % Fall ([2]; 62.5 mg/kg): 47%
S. Cholesterol ([2]; 125 mg/kg orally daily, day 0): 133.3 ± 8.5 mg/dL
S. Triglycerides ([2]; 125 mg/kg orally daily, day 0): 69.8 ± 9.9 mg/dL
S. Triglycerides ([2]; 125 mg/kg orally daily, day 60): 60.0 ± 2.9 mg/dL
S. Cholesterol ([2]; 125 mg/kg orally daily, day 90): 65.8 ± 2.2 mg/dL
HDL-Cholesterol ([2]; 125 mg/kg, day 0): 46.3 ± 2.0 mg/dL
LDL-Cholesterol ([2]; 125 mg/kg, day 0): 63.5 ± 7.4 mg/dL
S. Triglycerides % Fall ([2]; 125 mg/kg): 13%
HDL-Cholesterol ([2]; 125 mg/kg, day 90): 50.8 ± 0.5 mg/dL
LDL-Cholesterol ([2]; 125 mg/kg, day 90): 4.6 ± 0.9 mg/dL
HDL-Cholesterol % Change ([2]; 125 mg/kg): +10%
LDL-Cholesterol % Fall ([2]; 125 mg/kg): 90%
S. Cholesterol % Fall ([2]; 125 mg/kg): 50%
S. Cholesterol ([2]; 650 mg/kg orally daily, day 0): 132.8 ± 6.4 mg/dL
S. Triglycerides ([2]; 650 mg/kg orally daily, day 0): 90.5 ± 3.9 mg/dL
S. Triglycerides ([2]; 650 mg/kg orally daily, day 60): 58.5 ± 3.8 mg/dL
S. Cholesterol ([2]; 650 mg/kg orally daily, day 90): 63.3 ± 2.3 mg/dL
HDL-Cholesterol ([2]; 650 mg/kg, day 0): 39.3 ± 1.3 mg/dL
LDL-Cholesterol ([2]; 650 mg/kg, day 0): 72.7 ± 8.4 mg/dL
S. Triglycerides % Fall ([2]; 650 mg/kg): 36%
HDL-Cholesterol ([2]; 650 mg/kg, day 90): 41.8 ± 0.9 mg/dL
LDL-Cholesterol ([2]; 650 mg/kg, day 90): 13.1 ± 0.7 mg/dL
HDL-Cholesterol % Change ([2]; 650 mg/kg): +6%
LDL-Cholesterol % Fall ([2]; 650 mg/kg): 82%
S. Cholesterol % Fall ([2]; 650 mg/kg): 53%
changes in HDL-cholesterol [2, 9]: not significant
decrease in low density lipoprotein [2, 9]: 75-90%
decrease in serum cholesterol [2, 9]: 45-52%
Serum Cholesterol % Decrease (Compared with HFD) [3]: 74%
Serum Triglycerides % Decrease (Compared with HFD) [3]: 61%
Serum Cholesterol ([3]; HFD): 350.0 ± 28.1 mg/dL
Serum Triglycerides ([3]; HFD): 74.2 ± 10.3
Blood Glucose Level ([4]; 0 hr): 274 ± 9 mg/dL
% lowering from zero hour value (blood glucose) ([4]; 1 hr): (11.3) %
% lowering from zero hour value (blood glucose) ([4]; 2 hr): (15.6) %
% lowering from zero hour value (blood glucose) ([4]; 3 hr): (25.9) %
% lowering from zero hour value (blood glucose) ([4]; 4 hr): (33.2) %
% lowering from zero hour value (blood glucose) ([4]; 5 hr): (42.7) %
% lowering from zero hour value (blood glucose) ([4]; 6 hr): (51.4) %
% lowering from zero hour value (blood glucose) ([4]; 7 hr): (62.7) %
% lowering from zero hour value (blood glucose) ([4]; 8 hr): (66.7) %
% lowering from zero hour value (blood glucose) ([4]; 24 hr): (52.2) %
Serum Cholesterol ([5]; 0 Days): 71.5 ± 1.8 mg %
Serum Cholesterol ([5]; 30 Days): 43.2 ± 2.9 mg %
Serum Cholesterol % Fall ([5]; 30 Days): 40%
Serum Triglycerides ([5]; 30 Days): 42.0 ± 2.8 mg %
Serum Triglycerides % Fall compared to control ([5]; 30 Days): 35%
change in vivo at 50 mg/kg [6]: -46%
HDL-Cholesterol ([7]; 50 mg/kg + HFD, Day 0): 34.8 ± 5.8 mg %
LDL-Cholesterol ([7]; 50 mg/kg + HFD, Day 0): 24.5 ± 14.2 mg %
HDL-Cholesterol ([7]; 50 mg/kg + HFD, Day 36): 37.57 ± 2.8 mg %
HDL-Cholesterol % Change ([7]; 50 mg/kg + HFD, Day 36): 181%
LDL-Cholesterol ([7]; 50 mg/kg + HFD, Day 36): 123.87 ± 14.0 mg %
Serum Cholesterol ([7]; 50 mg/kg p.o. + HFD, day 0): 69.1 ± 9.9 mg %
Serum Triglycerides ([7]; 50 mg/kg p.o. + HFD, day 0): 48.8 ± 7.0 mg %
Serum Cholesterol ([7]; 50 mg/kg p.o. + HFD, day 10): 212.4 ± 23.8 mg %
Serum Cholesterol % Decrease (compared to group III, HFD) ([7]; 50 mg/kg p.o. + HFD, day 10): 16%
Serum Cholesterol ([7]; 50 mg/kg p.o. + HFD, day 36): 165 ± 26.7 mg %
Serum Cholesterol % Decrease (compared to group III, HFD) ([7]; 50 mg/kg p.o. + HFD, day 36): 31%
Serum Triglycerides ([7]; 50 mg/kg p.o. + HFD, day 36): 61.5 ± 10.5 mg %
Serum Triglycerides % Decrease (compared to group III, HFD) ([7]; 50 mg/kg p.o. + HFD, day 36): 55%
HDL-Cholesterol ([7]; 100 mg/kg + HFD, Day 0): 43.4 ± 8.3 mg %
LDL-Cholesterol ([7]; 100 mg/kg + HFD, Day 0): 10.02 ± 8.5 mg %
HDL-Cholesterol ([7]; 100 mg/kg + HFD, Day 36): 47.2 ± 3.7 mg %
HDL-Cholesterol % Change ([7]; 100 mg/kg + HFD, Day 36): 161%
LDL-Cholesterol ([7]; 100 mg/kg + HFD, Day 36): 48.64 ± 5.1 mg %
Serum Cholesterol ([7]; 100 mg/kg p.o. + HFD, day 0): 60.8 ± 10.3 mg %
Serum Triglycerides ([7]; 100 mg/kg p.o. + HFD, day 0): 50 ± 7.1 mg %
Serum Cholesterol ([7]; 100 mg/kg p.o. + HFD, day 10): 145.5 ± 10.6 mg %
Serum Cholesterol % Decrease (compared to group III, HFD) ([7]; 100 mg/kg p.o. + HFD, day 10): 48%
Serum Cholesterol ([7]; 100 mg/kg p.o. + HFD, day 36): 106.4 ± 4.6 mg %
Serum Cholesterol % Decrease (compared to group III, HFD) ([7]; 100 mg/kg p.o. + HFD, day 36): 59%
Serum Triglycerides ([7]; 100 mg/kg p.o. + HFD, day 36): 53.0 ± 7.5 mg %
Serum Triglycerides % Decrease (compared to group III, HFD) ([7]; 100 mg/kg p.o. + HFD, day 36): 62%
progestational activity [8]: did not exhibit any activity
